Reference: patent US8623426B2, “Composition for preventing or treating diseases caused by influenza viruses” (Korea Institute of Oriental Medicine, priority 2009, dated 2014)
Read-outs that look alike come from different tables or passages of the source.

Legend:
influenza virus = assay type: cell-based; conditions: 1.23 mg/ml

## CCOC(=O)C1=C[C@@H](OC(CC)CC)[C@H](NC(C)=O)[C@@H](N)C1 [Tamiflu, oseltamivir]
Influenza virus
  antiviral activity: no antiviral activity
MDCK cells
  cytotoxicity: comparatively high cytotoxicity
MDCK cells; 0.14 mg/ml
  Cell viability (%): 64.02%
MDCK cells; 0.41 mg/ml
  Cell viability (%): 54.94%
MDCK cells; 1.23 mg/ml
  Cell viability (%): 20.83%
  cytotoxicity: showed high cytotoxicity
